Test results taken from BindingDB's records for doi:10.7270/Q2TX3CTT (Broad Institute, 2010).

Molecular target: Glycogen synthase kinase-3 beta (Homo sapiens, UniProt P49841)
Test: concentration-response blocking of human GSK3B – biochemical, luminescence, cell-free homogeneous, retest, dose response (AID 434954)

Glycogen synthase kinase-3 beta, sequence (P49841 whole entry): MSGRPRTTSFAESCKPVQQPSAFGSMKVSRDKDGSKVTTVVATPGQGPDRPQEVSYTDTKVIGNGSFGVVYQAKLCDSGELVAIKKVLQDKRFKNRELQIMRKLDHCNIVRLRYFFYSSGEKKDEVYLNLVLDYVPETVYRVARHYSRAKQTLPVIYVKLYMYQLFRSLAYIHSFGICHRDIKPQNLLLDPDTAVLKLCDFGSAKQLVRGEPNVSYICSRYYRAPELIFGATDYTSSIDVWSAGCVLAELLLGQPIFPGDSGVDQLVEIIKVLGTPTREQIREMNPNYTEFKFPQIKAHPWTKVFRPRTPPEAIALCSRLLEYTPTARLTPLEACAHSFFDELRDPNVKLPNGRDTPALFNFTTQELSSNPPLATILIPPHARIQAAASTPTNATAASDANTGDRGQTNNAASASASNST

Compound | EC50
Cc1cccc(NC(=O)CSc2nc(O)c(C#N)c(-c3ccccc3)n2)c1C [SMR000161905] | > 300 µM
Cc1cccn2c(=O)nc(SCC(=O)NC3CCCCC3)nc12 | > 300 µM
CCOC(=O)c1nnn(-c2nonc2N)c1CSc1ccccc1 [ethyl 1-(4-amino-1,2,5-oxadiazol-3-yl)-5-[(phenylthio)methyl]-1H-1,2,3-triazole-4-carboxylate] | 14.7 µM
O=C(O)c1ccc(N=NCc2ccc(-c3cccc(Cl)c3)o2)cc1 [SMR000415894] | > 300 µM
COc1ccc(NC(=O)Nc2ccccn2)cc1OC [N-(3,4-dimethoxyphenyl)-N'-2-pyridinylurea] | > 300 µM
O=C(NN=Cc1ccco1)c1ccn[nH]1 [SMR000279368] | > 300 µM
CN1CCN(CCC2Oc3cc([N+](=O)[O-])ccc3NC2=O)CC1 (stereo not given) [SMR000336558] | > 300 µM
O=C(Nc1cccc(Cl)c1)c1ccc(NCCCN2CCOCC2)c([N+](=O)[O-])c1 [SMR000194818] | > 300 µM
O=Cc1cn(CCC(=O)O)nc1-c1cccc(Cl)c1 | > 300 µM
CCOC(=O)c1c(C)oc2c(CC(=O)c3ccccc3)c(Cl)c(O)c(O)c12 [ethyl 6-chloro-4,5-dihydroxy-2-methyl-7-phenacyl-1-benzofuran-3-carboxylate] | > 300 µM
COc1cccc(CCNC(=O)c2ccc(C#N)cc2)c1 [MLS000696427] | > 300 µM
CC1(C)Oc2ccc(C(=O)N3CCOCC3)cc2N(CC(=O)N2CCOCC2)C1=O | > 300 µM
CCCn1c(SCC(=O)Nc2ccc(Cl)cn2)nnc1C1CC1 | 24 µM
CCCCCCSc1ccc([C@H]2N[C@@](CC(C)C)(C(=O)OC)[C@H]3C(=O)N(C)C(=O)[C@@H]23)cc1 [SMR000814394] | > 300 µM
Cc1cccc(Nc2nc(NCCCN3CCOCC3)nc(N)c2[N+](=O)[O-])c1 [N4-(3-methylphenyl)-N2-(3-morpholin-4-ylpropyl)-5-nitro-pyrimidine-2,4,6-triamine] | 1.72 µM
Nc1nc(NCC2CCCO2)nc(NCC2CCCO2)c1[N+](=O)[O-] (stereo not given) | 12.2 µM
CC1CCCCN1c1cc(C#N)c(C#N)cc1[N+](=O)[O-] (stereo not given) [4-(2-methyl-1-piperidinyl)-5-nitrophthalonitrile] | > 300 µM
COc1cccc(N(CC(=O)NCC2CCCO2)C(=O)CCC(=O)Nc2nccs2)c1 (stereo not given) [N'-(3-methoxyphenyl)-N'-[2-oxo-2-(oxolan-2-ylmethylamino)ethyl]-N-(1,3-thiazol-2-yl)butanediamide] | > 300 µM
COCCn1nnnc1C(c1cc2cc(C)ccc2[nH]c1=O)N1CCc2ccccc21 (stereo not given) [SMR000122998] | > 300 µM
CCCCCCN1C(=O)NC(=O)C(=CNCCCn2ccnc2)C1=O [(5E)-1-hexyl-5-[[3-(1-imidazolyl)propylamino]methylidene]-1,3-diazinane-2,4,6-trione] | 14.3 µM
O=C(CN1C(=O)COc2ccccc21)Nc1ccccc1F [MLS001205921] | > 300 µM
COc1nc(NCCN2CCOCC2)nc(Nc2ccc([N+](=O)[O-])cc2)n1 | > 300 µM
COc1ccc(C(=O)c2sc(Nc3ccccc3)nc2N)cc1 | 1.04 µM
CNc1nc(N)c([N+](=O)[O-])c(NC2CCCCC2)n1 [4-N-cyclohexyl-2-N-methyl-5-nitropyrimidine-2,4,6-triamine] | 7.52 µM
COc1ccc(-c2nnc(NC(=O)C3=COCCO3)o2)cc1 [MLS000722006] | > 300 µM
Cc1ccccc1-c1nnc(SCCOc2ccc3c(C)cc(=O)oc3c2)o1 | > 300 µM
NC(=S)c1cn(C2OC(CO)C(O)C2O)c2ncnc(N)c12 (stereo not given) [4-amino-7-[3,4-dihydroxy-5-(hydroxymethyl)oxolan-2-yl]pyrrolo[2,3-d]pyrimidine-5-carbothioamide] | 12 µM
COC1=C/C(=C/c2c(N)n3cc(C)sc3nc2=O)C=CC1=O | > 300 µM
O=C(OCCCN1CCCCC1)c1ccc(O)cc1 [3-piperidin-1-ylpropyl 4-hydroxybenzoate] | > 300 µM
COc1cccc(-n2c(Cn3nc(C(F)F)cc3C(F)F)n[nH]c2=S)c1 [3-[[3,5-bis(difluoromethyl)-1-pyrazolyl]methyl]-4-(3-methoxyphenyl)-1H-1,2,4-triazole-5-thione] | > 300 µM
